Experiment [1] addresses Leucyl-cystinyl aminopeptidase (Homo sapiens) (UniProt Q9UIQ6). In words: Inhibition of IRAP (unknown origin) using L-AMC as substrate.
The target in experiment [2] is Insulin-regulated aminopeptidase (Homo sapiens). Briefly: Inhibition of human recombinant IRAP expressed in baculovirus infected Sf9 cells using L-AMC as substrate incubated for 5 to 10 mins by Michaelis-Menten analysis.
Experiment [3] has as its target Leucyl-cystinyl aminopeptidase (Homo sapiens) (UniProt Q9UIQ6). In words: Inhibition of IRAP (unknown origin) using L-pNA as substrate.

pIC50: −log10 of the molar value.

This note sets out measurements from BindingDB's records for PubMed 39011823 (University of Lille).

Leucyl-cystinyl aminopeptidase (Homo sapiens), sequence (Q9UIQ6 whole entry, looked up): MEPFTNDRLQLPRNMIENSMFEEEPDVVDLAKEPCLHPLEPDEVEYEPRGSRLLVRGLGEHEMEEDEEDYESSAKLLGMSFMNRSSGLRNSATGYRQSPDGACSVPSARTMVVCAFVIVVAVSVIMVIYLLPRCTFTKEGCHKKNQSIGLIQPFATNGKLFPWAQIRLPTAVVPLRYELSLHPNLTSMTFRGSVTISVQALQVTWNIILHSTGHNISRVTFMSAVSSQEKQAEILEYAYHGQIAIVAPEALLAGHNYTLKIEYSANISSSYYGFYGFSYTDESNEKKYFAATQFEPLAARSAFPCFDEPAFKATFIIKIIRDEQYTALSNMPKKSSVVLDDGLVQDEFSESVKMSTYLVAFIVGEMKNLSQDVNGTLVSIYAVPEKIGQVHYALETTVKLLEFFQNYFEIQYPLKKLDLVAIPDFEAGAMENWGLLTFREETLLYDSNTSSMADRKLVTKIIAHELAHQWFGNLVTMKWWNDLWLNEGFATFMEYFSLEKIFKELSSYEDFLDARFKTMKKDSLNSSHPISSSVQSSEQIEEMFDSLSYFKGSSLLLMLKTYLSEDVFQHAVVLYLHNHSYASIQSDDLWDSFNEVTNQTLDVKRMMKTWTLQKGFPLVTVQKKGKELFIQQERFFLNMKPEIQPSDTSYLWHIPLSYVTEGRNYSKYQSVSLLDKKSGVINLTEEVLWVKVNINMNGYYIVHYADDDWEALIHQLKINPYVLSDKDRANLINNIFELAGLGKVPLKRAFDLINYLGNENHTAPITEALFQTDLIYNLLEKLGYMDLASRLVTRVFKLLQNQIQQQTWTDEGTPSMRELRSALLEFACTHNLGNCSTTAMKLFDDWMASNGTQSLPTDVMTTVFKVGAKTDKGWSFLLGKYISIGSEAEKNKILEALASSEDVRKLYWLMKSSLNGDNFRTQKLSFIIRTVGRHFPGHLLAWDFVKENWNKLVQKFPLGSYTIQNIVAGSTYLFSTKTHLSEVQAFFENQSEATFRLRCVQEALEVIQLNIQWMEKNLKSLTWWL

`COc1ccc(C[C@@H](C(=O)NO)n2cc(CNS(=O)(=O)c3ccc(-c4ccccn4)s3)nn2)cc1` [US20240101542, Compound 25] had a pIC50 in experiment [1] of 6.73.

With `NC1CCc2c(Br)ccc(Br)c2CC1=O` (stereo not drawn), the pIC50 in experiment [2] is 7.47.

Take `O=C(NO)[C@H](Cc1ccc(Oc2ccccc2)cc1)n1cc(CNS(=O)(=O)c2ccc(-c3ccccn3)s2)nn1` [US20240101542, Compound 23]: in experiment [1], the pIC50 is 6.25.

In the case of `COc1ccc(C[C@@H](C(=O)NO)n2cc(CNS(=O)(=O)c3ccc(-c4ccccc4)s3)nn2)cc1` [US20240101542, Compound 24], the pIC50 in experiment [1] is 6.42.

`CC(C)C[C@H](CP(=O)(O)[C@@H](N)CCc1ccccc1)C(N)=O` showed a pIC50 in experiment [1] of 6.66.

In turn, `COc1ccc(C(=O)O)cc1S(=O)(=O)N(C)c1cc(C(F)(F)F)ccc1N1CCCCC1` gave a pIC50 in experiment [1] of 3.80.

`NC1CCc2c(Br)ccc(-c3ccccc3)c2CC1=O` (stereo not drawn): the pIC50 in experiment [2] was 6.92.

Regarding `O=C(C[C@H](Cc1ccc(O)cc1)n1nncc1CNS(=O)(=O)c1ccc(-c2ccccn2)s1)NO` [US20240101542, Compound 33], in experiment [1], the pIC50 is 7.08.

`CC(C)C[C@@H](CP(=O)(O)[C@@H](N)CCc1ccccc1)C(N)=O` had a pIC50 in experiment [1] of 6.46.

`COc1ccc(C(=O)O)cc1S(=O)(=O)N(C)c1cc(C(F)(F)F)ccc1N1CCN(C)CC1`: the pIC50 in experiment [1] was less than 3.70.

In experiment [3], `O=S(=O)(Nc1ccccc1)c1ccccc1` [phenyl(phenylsulfonyl)amine] gave a pIC50 of 5.68.

As for `COc1ccc(C(=O)O)cc1S(=O)(=O)Nc1cc(C(F)(F)F)ccc1N1CCCCC1`, in experiment [1], the pIC50 was less than 3.70.

For the compound `C#C[C@H](CP(=O)(O)[C@@H](N)CCc1ccccc1)C(=O)N[C@@H](Cc1ccccc1)C(N)=O`, in experiment [1], the negative logarithm of the IC50 (pIC50) is 8.70.
